For one compound, Preventive value results are on record in patent publication US12630543B2 (priority 2019, dated 2026).

Structures are written as SMILES.

The test system of the assay is rice blast. It is filed as cell-based. The conditions noted are these: 1,000 μl of 2,000 ppm test solution on oatmeal culture medium; 8 mm rice blast disc; 25° C. for 7 days; elongation length of hyphae vs without treatment.

With `COc1nn(-c2ccccn2)c(F)c1C(F)(F)F` [Example 2, 5-fluoro-3-methoxy-1-(2-pyridyl)-4-trifluoromethylpyrazole], the Preventive value came to 80.
